Source: patent US12590103B2, “Polymorph of EP4 receptor antagonist, preparation method therefor and use thereof” (SHANGHAI YUYAO BIOTECH LTD., priority 2020, dated 2026)
Blank lines part the entries; values can stand above or below the compound they belong to.

Legend:
Format in all cases: physicochemical
[1] = Volatilization at room temperature, sample checked by 1H NMR; details: volatilized at room temperature in THF, MeOH-THF and THF-water
Description: The structure of the solid sample and the solvent contained in the sample were confirmed by ^1H NMR. The instrument used for ^1H NMR analysis is Bruker Advance 300 equipped with B-ACS 120 automatic sampling system.
Single solvent volatilization: an appropriate amount of initial raw materials of compound I was dissolved in the solvents shown in 1-6 in Table 8 to prepare a solution with a concentration of 8 to 20 mg/mL. The obtained solution was filtered, the filtrate was volatilized at room temperature, and the obtained solid was characterized by XRPD.
Binary solvent volatilization: an appropriate amount of initial raw materials of compound I was dissolved in the solvents shown in 7-25 of Table 8 to prepare a solution with a concentration of 10 mg/mL. After filtration, the resulting filtrate was then mixed with solvent −2; then volatilized at room temperature. A total of 19 solvent systems were used to carry out the volatilization experiment of binary solvent, and the obtained solid was characterized by XRPD.

[2] = Stability determination at 25° C./92.5% RH (XRPD); details: 25° C./92.5% RH for 9 days
Description: (§1) The solid samples obtained from the experiment were analyzed by D8 advance powder X-ray diffraction analyzer (Bruker). The instrument is equipped with a LynxEye detector, and the ray species is Cu Kα (λ=1.54184 Å). The 2θ scanning range of the sample is from 3° to 40°, and the scanning step is 0.02°. When measuring the sample, the light tube voltage and light tube current were 40 KV and 40 mA respectively.

[3] = Dynamic water vapor adsorption (DVS)
Description: The instrument model used for dynamic moisture absorption and desorption analysis is IGA Sorp(Hidentity Isochema). The sample measurement adopts gradient mode, the relative humidity range of the test is 0% to 90%, and the humidity increment of each gradient is 10%. The specific parameters are as follows: • Sample temperature: 25° C. • Temperature stability: 0.1° C./min • Flow rate: 250 mL/min • Scan: 2 • Model: F1 • Minimum time: 30 min • Maximum time: 120 min • Waiting cap: 98% • Start: Adsorption Scan • Adsorption humidity (%):0, 10, 20, 30, 40, 50, 60, 70, 80, 90; • Desorption humidity (%):80, 70, 60, 50, 40, 30, 20, 10, 0.
The initial raw material of Compound I was slurried in acetone for 4 hours, filtered and the resulting solid was characterized by XRPD, PLM, TGA, DSC and DVS.

[4] = Suspension crystal transformation experiment of Polymorphic Form I and Polymorphic Form II; details: concluded from suspension crystal transformation at RT and 50° C.
Description: Suspension crystal transformation experiments were carried out on Polymorph I and polymorph II at room temperature and 50° C. respectively (Table 13). The resulting solid was characterized by XRPD.

[5] = DSC heat treatment (heating-cooling-heating cycle) with XRPD; details: RT to 260° C., to −30° C., to 300° C.
Description: The DSC heating-cooling-heating cycle was used to try to find a crystal form with a higher melting point.
During the cooling process, there is an obvious exothermic peak. The initial temperature of the exothermic peak is 206.8° C., which should be caused by crystal transformation. XRPD characterization was performed on three different positions during DSC treatment.

[6] = XRPD characterization after heating (thermal crystal transformation)
Description: as §1

crystal form by XRPD after heating ([6]; heated to 240° C.): transformed into polymorphic Form I
SMILES: C[C@H](NC(=O)c1c(Cc2ccc(F)cc2)sc2c1CCOC2)c1ccc(C(=O)O)cc1 [polymorphic Form III, (S)-4-(1-(2-(4-fluorobenzyl)-4,7-dihydro-5H-thieno [2,3-c]pyran-3-carboxamido)ethyl) benzoic acid]

crystal form by XRPD after heating ([6]; heated to 200° C.): transformed into polymorphic Form I
SMILES: C[C@H](NC(=O)c1c(Cc2ccc(F)cc2)sc2c1CCOC2)c1ccc(C(=O)O)cc1 [polymorphic Form IV, (S)-4-(1-(2-(4-fluorobenzyl)-4,7-dihydro-5H-thieno [2,3-c]pyran-3-carboxamido)ethyl) benzoic acid]

crystal form by XRPD after heating ([6]; heated to 200° C.): converted into the polymorphic Form I
SMILES: C[C@H](NC(=O)c1c(Cc2ccc(F)cc2)sc2c1CCOC2)c1ccc(C(=O)O)cc1 [polymorphic Form V, (S)-4-(1-(2-(4-fluorobenzyl)-4,7-dihydro-5H-thieno [2,3-c]pyran-3-carboxamido)ethyl) benzoic acid]

crystal form by XRPD after heating ([6]; heated to about 236° C.): transformed into polymorphic Form I
SMILES: C[C@H](NC(=O)c1c(Cc2ccc(F)cc2)sc2c1CCOC2)c1ccc(C(=O)O)cc1 [polymorphic Form VI, (S)-4-(1-(2-(4-fluorobenzyl)-4,7-dihydro-5H-thieno [2,3-c]pyran-3-carboxamido)ethyl) benzoic acid]

The next lines start with the compound.

SMILES: C[C@H](NC(=O)c1c(Cc2ccc(F)cc2)sc2c1CCOC2)c1ccc(C(=O)O)cc1 [compound I, (S)-4-(1-(2-(4-fluorobenzyl)-4,7-dihydro-5H-thieno [2,3-c]pyran-3-carboxamido)ethyl) benzoic acid]
chemical stability of the sample (1H NMR) [1]: degraded

SMILES: C[C@H](NC(=O)c1c(Cc2ccc(F)cc2)sc2c1CCOC2)c1ccc(C(=O)O)cc1 [polymorphic Form I, (S)-4-(1-(2-(4-fluorobenzyl)-4,7-dihydro-5H-thieno [2,3-c]pyran-3-carboxamido)ethyl) benzoic acid]
crystal form by XRPD after storage in high humidity [2]: remain unchanged
polymorph of the sample before and after moisture absorption ([3]; DVS 0% to 90% RH): does not change
moisture absorbed (DVS) ([3]; at 80% RH, 25° C.): < 2%
thermodynamic stability of the crystal form [4]: thermodynamically stable crystal form
crystal form by XRPD at positions 1, 2 and 3 of the DSC treatment [5]: all polymorphic Form I

SMILES: C[C@H](NC(=O)c1c(Cc2ccc(F)cc2)sc2c1CCOC2)c1ccc(C(=O)O)cc1 [polymorphic Form II, (S)-4-(1-(2-(4-fluorobenzyl)-4,7-dihydro-5H-thieno [2,3-c]pyran-3-carboxamido)ethyl) benzoic acid]
crystal form by XRPD after heating ([6]; heated to 200° C.): transformed into polymorphic Form I
